Assays:
[1] = system: CYP1A2; experiment: in vitro; conditions: human; for Mean Fold Induction: 48 h
Procedure: The incubation solution was aspirated and replaced with incubation solution containing the same concentrations of salidroside, vehicle, or positive inducers for an additional 24 h. The total treatment period was 48 h. After the treatment period of 48 h, the incubation solution was aspirated. Hepatocytes were washed twice with pre-warmed HBSS containing 10 mM HEPES (HBSS I) and then the remaining solution was aspirated. Hepatocytes were washed once with pre-warmed HBSS I and incubated with 140 μL of RLT (lysis buffer from RNeasy 96 Kit) supplemented with 1% β-mercaptoethanol. Plates were then stored at −70 °C in a freezer until RNA analysis. Before RNA extraction, the frozen plate was thawed, and cell lysates were transferred to 96-well plates. RNA isolation was performed using a QIAcube RNA extraction system. Reverse transcription was performed to obtain cDNA. Quantification of the selective genes by real-time quantitative polymerase chain reaction (qPCR) was performed with TaqMan universal PCR Master Mix on the Bio-rad CFX384 TouchTM Real-Time PCR System. The relative change in the mRNA level of the selected target genes induced by each test compound was expressed in relation to the vehicle control sample, and fold changes in gene expression were determined by the ΔΔCt method.

[2] = molecular target: T1, CYP2B6 (Homo sapiens, UniProt P20813); conditions: microsomes
T1 sequence (P20813 1-491): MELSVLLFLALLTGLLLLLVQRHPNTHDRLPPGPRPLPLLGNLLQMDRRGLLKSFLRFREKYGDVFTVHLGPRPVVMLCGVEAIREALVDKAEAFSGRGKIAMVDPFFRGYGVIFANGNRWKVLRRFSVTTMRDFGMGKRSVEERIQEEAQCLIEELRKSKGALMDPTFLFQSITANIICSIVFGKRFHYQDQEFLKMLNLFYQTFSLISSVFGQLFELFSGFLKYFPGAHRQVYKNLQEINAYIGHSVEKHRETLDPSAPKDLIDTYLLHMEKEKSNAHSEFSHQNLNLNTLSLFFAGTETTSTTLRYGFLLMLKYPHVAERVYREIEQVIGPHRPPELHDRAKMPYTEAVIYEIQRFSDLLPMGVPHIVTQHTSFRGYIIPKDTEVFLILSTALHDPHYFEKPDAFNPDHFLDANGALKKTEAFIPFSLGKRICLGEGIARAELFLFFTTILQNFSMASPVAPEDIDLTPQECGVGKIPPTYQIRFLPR
Procedure: (§1) Incubation without 30 min pre-incubation, 178.5 µL of liver microsomes working was pre-incubated in a 37 °C water bath for 30 min. After the pre-incubation, 1.5 μL of test compound or control compound working solution, 60 μL of substrate working solution, and 60 μL of NADPH working solution were added; then, the reaction mixture was mixed by pipetting up and down and then incubated at 37 °C for 10 min. Incubation with 30 min pre-incubation. Next, 1.5 μL of test compound or control compound working solutions and 60 μL of NADPH working solution were added into 178.5 μL of liver microsome working solution, then the reaction mixture was mixed by pipetting up and down and then pre-incubated at 37 °C for 30 min. […]
(§2) For competitive and time-dependent CYP inhibition, the peak area ratios (PAR) of analyte/internal standard were used to semi-quantitatively determine the concentration of acetaminophen (CYP1A2 activity), 4’-hydroxydiclofenac (CYP2C9), 4’-hydroxymephenytoin (CYP2C19), dextrorphan (CYP2D6), 1’-hydroxymidazolam (CYP3A4), 6β-hydroxytestosterone (CYP3A4), hydroxybupropion (CYP2B6), and N-desethylamodiaquine (CYP2C8), with terfenadine as the internal standard by LC-MS/MS method. The HPLC-MS system utilized an Acquity UPLC system and Sciex API 4000 mass spectrometer in ESI positive mode, with quantitation employing MRM. […]

[3] = molecular target: CYP2C19 (Homo sapiens, UniProt P33261); conditions: microsomes
Chain of CYP2C19 (P33261 whole entry): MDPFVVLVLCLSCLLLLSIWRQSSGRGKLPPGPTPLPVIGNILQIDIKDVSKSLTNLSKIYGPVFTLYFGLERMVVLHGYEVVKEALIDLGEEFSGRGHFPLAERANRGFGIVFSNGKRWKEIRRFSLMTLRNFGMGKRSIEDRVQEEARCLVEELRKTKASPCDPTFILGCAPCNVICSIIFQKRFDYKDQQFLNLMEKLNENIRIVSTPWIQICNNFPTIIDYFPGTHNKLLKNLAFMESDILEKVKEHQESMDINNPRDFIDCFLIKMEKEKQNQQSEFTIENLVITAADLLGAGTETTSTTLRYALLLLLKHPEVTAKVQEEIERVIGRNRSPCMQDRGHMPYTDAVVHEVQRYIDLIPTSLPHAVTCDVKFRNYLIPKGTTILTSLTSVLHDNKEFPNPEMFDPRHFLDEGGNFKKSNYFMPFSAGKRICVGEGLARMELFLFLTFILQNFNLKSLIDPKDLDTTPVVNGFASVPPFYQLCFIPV
Procedure: as §1, §2

[4] = system: MAO-A; set-up: method as in PMID 19168123; conditions: isolated compound at 10 µM; cited from earlier work
[5] = set-up: method as in PMID 35684130; conditions: multiple oral dose rat study; cited from earlier work
[6] = system: rat CYP enzymes (probe drug cocktail); set-up: method as in PMID 29796228; conditions: salidroside 30 mg/kg/day, eight daily doses, day 8; cited from earlier work
[7] = system: CYP3A4/5; experiment: in vitro; conditions: human, microsomes
Procedure: Test compound/controls working solution or DMSO were added in 238.5 µL of liver microsomes working solution, mixed well by pipetting several times and pre-incubated in a 37 °C shaking water bath for 5 min. Following the pre-incubation, 60 µL of NADPH working solution were added, mixed well by pipetting several times, and incubated in a 37 °C shaking water bath for 10 min. Following the incubation, 300 µL of quenching solution were immediately added and vortexed for ~20 s to mix. All samples were centrifuged at 4000 rpm for 15 min at 4 °C and then the supernatant was transferred for LC-MS/MS analysis. IC50 values were determined by the Hill slope equation using Graph Pad Prism.
For competitive and time-dependent CYP inhibition, the peak area ratios (PAR) of analyte/internal standard were used to semi-quantitatively determine the concentration of acetaminophen (CYP1A2 activity), 4’-hydroxydiclofenac (CYP2C9), 4’-hydroxymephenytoin (CYP2C19), dextrorphan (CYP2D6), 1’-hydroxymidazolam (CYP3A4), 6β-hydroxytestosterone (CYP3A4), hydroxybupropion (CYP2B6), and N-desethylamodiaquine (CYP2C8), with terfenadine as the internal standard by LC-MS/MS method. The HPLC-MS system utilized an Acquity UPLC system and Sciex API 4000 mass spectrometer in ESI positive mode, with quantitation employing MRM. Samples were injected onto an Atlantis T3 5 μM column (2.1 x 50 mm). […]

[8] = system: CYP3A4/5; experiment: in vitro; conditions: human, microsomes; remark: listed apart in the source
Procedure: as §1, §2

[9] = molecular target: T2, CYP2C8 (Homo sapiens, UniProt P10632); experiment: biochemical
T2 sequence (P10632 1-490): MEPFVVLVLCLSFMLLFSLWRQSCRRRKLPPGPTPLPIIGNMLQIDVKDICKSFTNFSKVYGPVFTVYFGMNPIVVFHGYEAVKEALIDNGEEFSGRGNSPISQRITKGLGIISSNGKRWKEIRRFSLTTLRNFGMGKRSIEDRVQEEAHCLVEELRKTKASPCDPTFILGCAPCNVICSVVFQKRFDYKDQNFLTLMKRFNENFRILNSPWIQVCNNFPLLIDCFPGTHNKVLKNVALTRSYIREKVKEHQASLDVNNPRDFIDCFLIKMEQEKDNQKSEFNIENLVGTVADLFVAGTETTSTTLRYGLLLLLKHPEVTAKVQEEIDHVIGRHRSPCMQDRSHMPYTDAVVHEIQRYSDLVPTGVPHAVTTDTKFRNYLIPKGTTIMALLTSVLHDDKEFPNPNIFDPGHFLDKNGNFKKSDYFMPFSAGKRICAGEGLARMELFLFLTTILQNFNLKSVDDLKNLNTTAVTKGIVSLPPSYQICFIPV
Procedure: as §1, §2

[10] = molecular target: CYP2D6 (Homo sapiens, UniProt P10635); experiment: Time-dependent inhibition (IC50 shift) in human liver microsomes
Chain of CYP2D6 (P10635 whole entry): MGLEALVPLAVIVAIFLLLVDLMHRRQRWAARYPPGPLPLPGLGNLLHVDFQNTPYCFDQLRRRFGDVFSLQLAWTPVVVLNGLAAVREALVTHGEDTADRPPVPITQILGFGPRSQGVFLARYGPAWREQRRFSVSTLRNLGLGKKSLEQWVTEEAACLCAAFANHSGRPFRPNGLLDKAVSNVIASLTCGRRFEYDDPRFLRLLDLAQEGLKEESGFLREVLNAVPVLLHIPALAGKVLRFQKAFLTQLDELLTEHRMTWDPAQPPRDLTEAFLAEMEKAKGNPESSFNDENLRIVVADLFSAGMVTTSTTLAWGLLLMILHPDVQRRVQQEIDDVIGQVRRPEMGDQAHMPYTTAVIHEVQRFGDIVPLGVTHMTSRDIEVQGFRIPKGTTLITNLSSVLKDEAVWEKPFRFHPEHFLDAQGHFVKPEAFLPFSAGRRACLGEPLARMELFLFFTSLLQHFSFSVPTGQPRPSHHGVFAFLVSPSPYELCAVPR
Procedure: as §1, §2

## OC[C@H]1O[C@@H](OCCc2ccc(O)cc2)[C@H](O)[C@@H](O)[C@@H]1O [Salidroside]
[1]; 1 µM
  Mean Fold Induction: 1.3 fold
[1]; 3 µM
  Mean Fold Induction: 1.0 fold
[1]; 10 µM
  Mean Fold Induction: 1.1 fold
[1]; 30 µM
  Mean Fold Induction: 1.2 fold
[1]; Mean Fold Induction
  fold induction at 48 h, 1 µM: 0.9
  fold induction at 48 h, 3 µM: 0.9
  fold induction at 48 h, 10 µM: 0.9
  fold induction at 48 h, 30 µM: 0.8
[2]
  IC50 Shift: no shift
[3]
  IC50 Shift: no shift
[4]
  inhibition of MAO-A: inactive
[5]
  no observed adverse effect level (NOAEL): ≥ 2000 mg/kg/day
[6]
  decrease of losartan AUC0-∞: ≈ 2 fold
  decrease of midazolam AUC0-∞: ≈ 2 fold
[7]
  IC50 at 10 min: > 50 µM
[8]
  IC50 at 10 min: > 50 µM
[9]
  IC50: > 50 µM
[10]
  IC50: > 50 µM

— article PMC10489644, “In Vitro Evaluation of the Potential for Drug Interactions by Salidroside” (Nutrients, 2023)
